The values that follow are results of earlier work, collected in patent US20080114046A1, “Pharmaceutical Combination of Angiotensin II Antagonists and Angiotensin I Converting Enzyme Inhibitors” (Boehringer Ingelheim International GmbH, priority 2002, published 2008).

The conditions of series [1]: first clinical trials.
The conditions of series [2]: normotensive patients with diabetic nephropathy; losartan added to enalapril.
The conditions of series [3]: HOPE study, treatment with ACE inhibitor ramipril.

Take `CCCCC1=NC2(CCCC2)C(=O)N1Cc1ccc(-c2ccccc2-c2nnn[nH]2)cc1` [irbesartan]: the renoprotective effect result in series [1] is “renoprotective effect”.

In the case of `CCCCc1nc(Cl)c(CO)n1Cc1ccc(-c2ccccc2-c2nn[nH]n2)cc1` [losartan], in series [1], the renoprotective effect result was “renoprotective effect”. Besides, in series [2], the “antiproteinuric effect of enalapril” value was “potentiated”.

As to `CCOC(=O)[C@H](CCc1ccccc1)N[C@@H](C)C(=O)N1[C@H](C(=O)O)C[C@@H]2CCC[C@@H]21` [ramipril], the “reduction of the risk of the combined primary cardiovascular outcome” value in series [3] is recorded as 22%.
